Assay results: ChEMBL document CHEMBL1201862, “PubChem BioAssay data set” (2004)
The source made the active and inactive calls.

Legend:
Cytochrome P450 2C19 = Cytochrome P450 2C19 (Homo sapiens, UniProt P33261); experiment: Cytochrome panel assay with activity outcomes. Panel member name: p450-cyp2c19 Compounds with AC50 equal or less than 10 uM are considered active; type: functional; details: read-out: AC50
Cytochrome P450 2D6 = Cytochrome P450 2D6 (Homo sapiens, UniProt P10635);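 note: CYP2D6 member of a cytochrome P450 panel assay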
Sequence of Cytochrome P450 2D6 (P10635 whole entry): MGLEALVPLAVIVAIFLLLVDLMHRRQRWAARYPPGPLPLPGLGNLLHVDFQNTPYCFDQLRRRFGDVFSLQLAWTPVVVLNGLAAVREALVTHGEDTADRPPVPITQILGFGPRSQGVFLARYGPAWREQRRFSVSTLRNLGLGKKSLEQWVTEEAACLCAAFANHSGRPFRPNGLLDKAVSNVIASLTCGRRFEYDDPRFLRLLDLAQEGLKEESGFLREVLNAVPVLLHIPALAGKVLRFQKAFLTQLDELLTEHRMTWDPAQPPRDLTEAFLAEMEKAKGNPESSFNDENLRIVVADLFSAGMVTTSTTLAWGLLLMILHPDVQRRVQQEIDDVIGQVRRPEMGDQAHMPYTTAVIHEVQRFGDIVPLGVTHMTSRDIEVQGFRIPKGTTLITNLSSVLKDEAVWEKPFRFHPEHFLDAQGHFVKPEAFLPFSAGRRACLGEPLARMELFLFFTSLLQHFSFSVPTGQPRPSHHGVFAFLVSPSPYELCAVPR

Cytochrome P450 1A2 = biological target: T1, Cytochrome P450 1A2 (Homo sapiens, UniProt P05177);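 note: PubChem cytochrome P450 panel assay, CYP1A2 panel member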
T1 sequence (P05177 whole entry): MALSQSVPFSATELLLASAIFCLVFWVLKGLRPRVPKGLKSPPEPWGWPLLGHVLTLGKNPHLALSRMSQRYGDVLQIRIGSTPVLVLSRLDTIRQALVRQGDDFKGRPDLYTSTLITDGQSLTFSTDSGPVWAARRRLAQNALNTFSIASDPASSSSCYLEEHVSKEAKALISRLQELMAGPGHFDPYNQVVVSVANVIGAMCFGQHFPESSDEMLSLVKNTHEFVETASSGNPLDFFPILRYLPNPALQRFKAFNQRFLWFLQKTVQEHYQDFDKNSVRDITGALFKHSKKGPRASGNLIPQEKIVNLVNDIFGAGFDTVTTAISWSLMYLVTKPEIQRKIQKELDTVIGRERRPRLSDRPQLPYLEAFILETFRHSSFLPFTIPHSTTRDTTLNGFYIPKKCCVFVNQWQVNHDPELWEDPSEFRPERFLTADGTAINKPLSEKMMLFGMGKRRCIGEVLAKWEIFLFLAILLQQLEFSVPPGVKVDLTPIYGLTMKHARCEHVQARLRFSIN

Cytochrome P450 2C9 = Cytochrome P450 2C9 (Homo sapiens, UniProt P11712)
Sequence of Cytochrome P450 2C9 (P11712 whole entry): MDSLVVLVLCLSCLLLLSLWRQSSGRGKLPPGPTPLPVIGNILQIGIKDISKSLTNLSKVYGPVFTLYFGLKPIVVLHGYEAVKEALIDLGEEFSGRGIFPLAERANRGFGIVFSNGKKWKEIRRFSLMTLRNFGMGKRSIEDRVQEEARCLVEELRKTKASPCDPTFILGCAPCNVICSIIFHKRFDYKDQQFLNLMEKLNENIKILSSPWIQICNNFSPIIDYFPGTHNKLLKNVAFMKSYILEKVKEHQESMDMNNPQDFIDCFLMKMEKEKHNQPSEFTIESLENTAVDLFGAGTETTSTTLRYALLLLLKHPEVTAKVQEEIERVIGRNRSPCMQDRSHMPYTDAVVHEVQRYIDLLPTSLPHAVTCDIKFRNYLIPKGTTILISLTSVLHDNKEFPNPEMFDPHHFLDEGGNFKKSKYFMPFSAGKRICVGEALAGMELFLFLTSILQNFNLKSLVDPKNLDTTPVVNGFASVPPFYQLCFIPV

[1] = biological target: FAD-linked sulfhydryl oxidase ALR (Homo sapiens, UniProt P55789); experiment: ALR-catalysed DTT oxidation blockers – biochemical, H2O2 detection, luminescence, cherry-pick, dose response (AID 493248)
Sequence of FAD-linked sulfhydryl oxidase ALR (P55789 whole entry): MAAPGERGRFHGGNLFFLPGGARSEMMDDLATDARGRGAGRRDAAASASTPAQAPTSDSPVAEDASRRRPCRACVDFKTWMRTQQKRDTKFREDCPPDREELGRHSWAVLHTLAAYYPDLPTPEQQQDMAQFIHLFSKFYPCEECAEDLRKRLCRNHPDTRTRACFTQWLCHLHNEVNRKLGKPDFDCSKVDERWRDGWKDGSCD

cells [2] = type: functional, cell-based
cells [3] = type: functional, cell-based; remark: listed apart in the source
[4] = biological target: Heat shock protein HSP 90-alpha (Homo sapiens, UniProt P07900); type: functional, organism-based
Large T antigen = Large T antigen (Simian virus 40, UniProt P03070); type: functional, Betapolyomavirus macacae;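 note: Confirmatory-stage PubChem screen for compounds that inhibit SV40 T antigen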
Sequence of Large T antigen (P03070 whole entry): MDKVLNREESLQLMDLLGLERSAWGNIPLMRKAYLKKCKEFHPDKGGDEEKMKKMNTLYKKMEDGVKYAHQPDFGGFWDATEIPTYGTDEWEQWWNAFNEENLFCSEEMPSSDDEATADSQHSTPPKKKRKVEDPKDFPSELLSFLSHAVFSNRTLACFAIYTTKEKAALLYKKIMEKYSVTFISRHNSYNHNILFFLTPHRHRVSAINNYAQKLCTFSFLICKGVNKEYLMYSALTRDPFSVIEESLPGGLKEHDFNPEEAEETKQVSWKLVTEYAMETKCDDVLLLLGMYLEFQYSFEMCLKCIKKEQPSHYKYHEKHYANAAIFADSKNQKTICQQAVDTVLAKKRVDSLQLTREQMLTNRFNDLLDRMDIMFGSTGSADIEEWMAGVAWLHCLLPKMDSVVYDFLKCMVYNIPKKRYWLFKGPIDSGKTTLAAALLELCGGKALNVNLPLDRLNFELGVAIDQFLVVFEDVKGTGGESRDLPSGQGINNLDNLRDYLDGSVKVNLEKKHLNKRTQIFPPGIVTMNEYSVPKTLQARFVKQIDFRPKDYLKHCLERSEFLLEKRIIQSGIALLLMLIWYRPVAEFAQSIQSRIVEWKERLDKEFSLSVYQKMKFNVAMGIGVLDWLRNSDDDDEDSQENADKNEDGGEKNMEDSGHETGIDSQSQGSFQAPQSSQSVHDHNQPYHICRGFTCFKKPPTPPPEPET

Nonstructural protein 1 = Nonstructural protein 1 (Influenza A virus, UniProt Q194T2); type: functional, Influenza A virus (A/California/07/2009(H1N1))
Sequence of Nonstructural protein 1 (Q194T2 whole entry): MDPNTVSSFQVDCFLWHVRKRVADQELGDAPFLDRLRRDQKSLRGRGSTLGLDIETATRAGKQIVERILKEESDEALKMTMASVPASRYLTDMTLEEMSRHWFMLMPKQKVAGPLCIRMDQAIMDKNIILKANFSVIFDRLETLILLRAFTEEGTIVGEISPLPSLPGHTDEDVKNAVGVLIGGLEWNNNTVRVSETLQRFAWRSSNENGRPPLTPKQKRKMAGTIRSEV

Vero = experiment: cells; type: functional; details: Chlorocebus sabaeus
Estrogen receptor = biological target: T2, Estrogen receptor (Homo sapiens, UniProt P03372);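 note: potency for inhibiting coactivator peptide recruitment to the receptor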
T2 sequence (P03372 whole entry): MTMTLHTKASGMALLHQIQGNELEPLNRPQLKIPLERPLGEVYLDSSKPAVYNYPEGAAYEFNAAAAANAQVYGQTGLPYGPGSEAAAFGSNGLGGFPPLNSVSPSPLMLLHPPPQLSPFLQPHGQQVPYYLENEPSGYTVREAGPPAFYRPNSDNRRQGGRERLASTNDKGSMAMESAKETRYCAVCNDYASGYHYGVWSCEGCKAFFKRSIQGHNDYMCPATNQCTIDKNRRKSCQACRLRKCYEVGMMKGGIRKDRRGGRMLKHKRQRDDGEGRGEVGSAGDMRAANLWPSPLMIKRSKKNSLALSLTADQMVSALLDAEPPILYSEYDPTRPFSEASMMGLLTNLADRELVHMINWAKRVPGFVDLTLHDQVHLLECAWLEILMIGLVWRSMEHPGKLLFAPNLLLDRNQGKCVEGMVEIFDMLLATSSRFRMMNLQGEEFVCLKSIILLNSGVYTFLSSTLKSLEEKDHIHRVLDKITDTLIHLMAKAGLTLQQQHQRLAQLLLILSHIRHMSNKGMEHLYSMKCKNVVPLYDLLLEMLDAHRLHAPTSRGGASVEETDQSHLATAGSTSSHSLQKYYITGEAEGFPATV

[5] = Trypanosoma cruzi growth suppression in host cells – NIH3T3 host cells, beta-gal luminescence, confirmation (AID 2044); type: functional, cell-based;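 note: intracellular parasites grown in NIH/3T3 mouse fibroblasts as host cells; luminescent beta-galactosidase reporter signal from transgenic T. cruzi replicating inside host cells; inhibitors lower the luminescence signal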
[6] = NIH3T3 cell viability loss – ATP luminescence, mouse fibroblasts, counter-screen, dose response (AID 2010); type: functional, cell-based;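 note: cells exposed to compound for about 90 hours before reading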
[7] = biological target: T3, Corticotropin-releasing factor receptor 2/Corticotropin-releasing factor-binding protein (Homo sapiens, UniProt P24387+Q13324); experiment: Dose Response confirmation of uHTS hits for small molecule antagonists of the CRF-binding protein and CRF-R2 receptor complex.; type: functional; details: read-out: IC50_Mean
T3 sequence (Q13324 whole entry): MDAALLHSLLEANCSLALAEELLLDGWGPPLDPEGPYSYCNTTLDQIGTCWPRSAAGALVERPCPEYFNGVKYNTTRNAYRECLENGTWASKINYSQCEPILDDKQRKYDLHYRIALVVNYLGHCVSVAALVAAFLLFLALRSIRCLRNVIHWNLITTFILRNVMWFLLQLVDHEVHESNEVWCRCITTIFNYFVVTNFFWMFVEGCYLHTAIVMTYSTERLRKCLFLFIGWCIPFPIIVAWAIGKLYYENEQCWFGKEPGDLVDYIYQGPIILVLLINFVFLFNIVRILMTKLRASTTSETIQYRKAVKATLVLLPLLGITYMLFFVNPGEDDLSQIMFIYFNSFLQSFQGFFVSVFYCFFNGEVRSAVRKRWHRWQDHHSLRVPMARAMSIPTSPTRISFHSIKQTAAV
T3 sequence (P24387 whole entry): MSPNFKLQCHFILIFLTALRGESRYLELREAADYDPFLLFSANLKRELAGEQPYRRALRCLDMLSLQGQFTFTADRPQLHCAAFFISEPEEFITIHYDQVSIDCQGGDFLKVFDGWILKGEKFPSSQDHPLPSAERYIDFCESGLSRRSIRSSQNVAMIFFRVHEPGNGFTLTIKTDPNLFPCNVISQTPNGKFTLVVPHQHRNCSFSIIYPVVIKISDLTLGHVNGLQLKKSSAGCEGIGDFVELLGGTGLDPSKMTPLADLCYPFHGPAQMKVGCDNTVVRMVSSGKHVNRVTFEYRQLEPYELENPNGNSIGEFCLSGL

[8] = biological target: T3, Corticotropin-releasing factor receptor 2/Corticotropin-releasing factor-binding protein; experiment: activators of CRF receptor 2 with binding protein – uHTS hits, confirmation (AID 602473); type: functional; details: read-out: EC50_Mean
[9] = biological target: T4, RNA-binding protein pos-1 (Caenorhabditis elegans, UniProt G5EF15); experiment: disruptors of C. elegans POS-1 RNA interaction – biochemical, fluorescence polarization, dose response (AID 1964);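 note: purified POS-1 fused to maltose binding protein made in E. coli; potency of compounds blocking POS-1 binding to fluorescent RNA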
T4 sequence (G5EF15 whole entry): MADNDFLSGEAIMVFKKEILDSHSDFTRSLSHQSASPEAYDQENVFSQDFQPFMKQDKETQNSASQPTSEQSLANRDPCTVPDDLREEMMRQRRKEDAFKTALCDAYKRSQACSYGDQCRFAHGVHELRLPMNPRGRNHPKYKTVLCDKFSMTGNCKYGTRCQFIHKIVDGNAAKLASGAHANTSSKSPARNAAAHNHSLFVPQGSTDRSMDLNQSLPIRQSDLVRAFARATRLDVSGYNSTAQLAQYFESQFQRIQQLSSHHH

[10] = biological target: T5, Zinc finger protein mex-5 (Caenorhabditis elegans, UniProt Q9XUB2); experiment: potency of MEX-5 RNA-binding blockers – biochemical, C. elegans, fluorescence polarization, dose response (AID 1960)
T5 sequence (Q9XUB2 whole entry): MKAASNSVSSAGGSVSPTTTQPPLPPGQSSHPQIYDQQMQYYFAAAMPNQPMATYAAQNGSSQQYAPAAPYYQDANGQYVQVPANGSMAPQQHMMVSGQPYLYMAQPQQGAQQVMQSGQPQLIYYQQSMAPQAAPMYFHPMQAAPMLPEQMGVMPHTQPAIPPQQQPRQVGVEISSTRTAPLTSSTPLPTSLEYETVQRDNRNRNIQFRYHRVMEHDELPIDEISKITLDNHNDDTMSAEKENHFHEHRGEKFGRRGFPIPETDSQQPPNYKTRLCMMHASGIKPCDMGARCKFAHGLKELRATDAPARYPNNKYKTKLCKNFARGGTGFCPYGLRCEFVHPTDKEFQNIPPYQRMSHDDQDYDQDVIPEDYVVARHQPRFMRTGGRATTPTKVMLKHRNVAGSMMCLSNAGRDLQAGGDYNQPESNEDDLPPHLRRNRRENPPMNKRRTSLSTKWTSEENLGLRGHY

Sequence of Cytochrome P450 2C19 (P33261 whole entry): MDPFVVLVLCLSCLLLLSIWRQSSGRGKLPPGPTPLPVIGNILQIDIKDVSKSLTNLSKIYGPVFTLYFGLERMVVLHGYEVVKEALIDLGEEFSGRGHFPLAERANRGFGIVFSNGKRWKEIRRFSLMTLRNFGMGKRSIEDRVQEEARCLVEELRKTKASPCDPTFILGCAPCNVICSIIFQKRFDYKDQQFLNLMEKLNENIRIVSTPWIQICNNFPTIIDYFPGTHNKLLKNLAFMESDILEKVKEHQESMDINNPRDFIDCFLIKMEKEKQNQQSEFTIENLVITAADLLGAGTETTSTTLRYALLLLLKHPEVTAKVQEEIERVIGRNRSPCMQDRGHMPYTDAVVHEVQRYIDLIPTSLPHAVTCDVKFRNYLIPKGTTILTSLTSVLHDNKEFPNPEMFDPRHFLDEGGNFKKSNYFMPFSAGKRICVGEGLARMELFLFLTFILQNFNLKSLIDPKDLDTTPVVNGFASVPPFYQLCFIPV

In the case of `Cn1c(=O)c2cc(S(=O)(=O)NCCC(=O)N3CC=C(c4ccccc4)CC3)ccc2n(C)c1=O`, the AC50 (Cytochrome P450 2C19) is reported as 25.1 µM (inconclusive), the AC50 (Cytochrome P450 2D6) is reported as 17.8 µM (inconclusive) and the AC50 (Cytochrome P450 1A2) is reported as 31.6 µM (inconclusive). The AC50 (Cytochrome P450 2C9) was “inconclusive”.

In the case of `c1ccc(-n2cnc3cc(NCc4ccccn4)ccc32)cc1`, the AC50 [1] is reported as 1.17 µM (active).

With `COc1ccc(/C=N/NC(=O)c2ccccc2O)cc1CSc1ccccn1` the EC50 (cells [2]) was > 350 µM (not active) and the EC50 (cells [3]) was > 350 µM (not active).

For `O=C(NCc1ccccc1)C(=O)c1cn(CC(=O)N2CCOCC2)c2ccccc12`, the EC50 (cells [2]) was > 350 µM (not active) and the EC50 (cells [3]) was > 350 µM (not active).

With `Cc1ccc(-c2nc(C#N)c(NCCN3CCCCC3)o2)cc1` the AC50 [1] was 4.4 µM (active).

In the case of `C=CCNC(=O)c1onc(CSc2cc(C)ccc2C)c1C(=O)O`, the AC50 [1] is reported as 4.81 µM (active).

For `O=C(O)c1ccccc1C(=O)Nc1ccc(-c2csc(-c3ccccc3)n2)cc1`, the AC50 [1] was 0.218 µM (active).

For `OCCOCCn1c(C2CCCN2c2nc(-c3ccc(F)cc3)cs2)nc2cc(C(F)(F)F)ccc21` (centres undefined), the AC50 [4] was 7.57 µM (active).

With `COC(=O)CNc1c(-c2ccccc2)nc2ccc(Br)cn12` the AC50 [1] was 1.08 µM (active).

With `C/C(=N/NS(=O)(=O)c1cccc([N+](=O)[O-])c1)c1c[nH]c2ccccc12` the IC50 (Large T antigen) was 17 µM (active).

In the case of `COc1ccccc1NC(=O)CSc1n[nH]c(-c2ccccn2)n1`, the IC50 (Nonstructural protein 1) is reported as 6.84 µM (active).

With `COc1ccc([C@@]2(C(C)C)ON(c3ccccc3C(F)(F)F)C2=O)cc1` the CC50 (Vero) was > 25 µM (active).

For `CN1CCC2(CC1)N=C(c1ccc(F)cc1)C(=S)N2C(=O)c1ccc(C(C)(C)C)cc1`, the EC50 (cells [2]) was > 350 µM (not active) and the EC50 (cells [3]) was 73.9 µM (active).

With `COc1cccc(OCc2cc(C(=O)N3CCN(c4ccccc4OC)CC3)no2)c1` the EC50 (cells [2]) was > 350 µM (not active) and the EC50 (cells [3]) was 66.7 µM (active).

For `O=C(Cc1cccs1)Nc1nnc(COc2ccccc2)s1`, the IC50 (Estrogen receptor) was 37.3 µM (not active).

In the case of `COc1ccc(N(C(=O)c2ccncc2)S(=O)(=O)c2ccc(Cl)cc2)cc1`, the AC50 [4] is reported as 0.354 µM (active).

In the case of `C[C@@H]1CC[C@H](Cc2ccc(-n3cccc3)cc2)N1C(=O)OC(C)(C)C`, the CC50 (Vero) is reported as > 25 µM (active).

For `CC1CCN(c2c([N+](=O)[O-])nn(-c3ccc4c(c3)OCCO4)[n+]2[O-])CC1`, the EC50 [5] was 0.431 µM (active), the EC50 [6] was > 60 µM (not active) and the IC50 (Nonstructural protein 1) was 58.9 µM (active).

With `NS(=O)(=O)c1ccc(-c2ccc(C=C3C(=O)NC(=S)NC3=O)o2)cc1` the IC50 (Large T antigen) was 10.5 µM (active).

In the case of `O=C(O)C1CSC(c2coc3ccccc3c2=O)N1` (centres undefined), the AC50 [1] is reported as 0.083 µM (active).

In the case of `COC(=O)[C@H](CCSC)NC(=O)C/C=C\[C@@H](C)CO`, the AC50 (Cytochrome P450 2C9) is reported as “inconclusive”.

In the case of `Cc1nnc(Nc2ccc(O)cc2)nc1O`, the IC50 (Large T antigen) is reported as 33 µM (active).

In the case of `COc1ccc(C2(C)NC(=O)NC2=O)cc1OC` (centres undefined), the EC50 (cells [2]) is reported as > 350 µM (not active) and the EC50 (cells [3]) is reported as 116 µM (active).

In the case of `COc1cccc(C2=NOC(C(=O)Nc3ccc(OC)c(OC)c3)C2)c1` (centres undefined), the AC50 (Cytochrome P450 2C19) is reported as 25.1 µM (inconclusive) and the AC50 (Cytochrome P450 2C9) is reported as “inconclusive”.

For `CC(C)OC(=O)c1cc2c(ccn2C)n1CC(=O)N(Cc1ccccc1)c1ccc(F)cc1`, the IC50 (Nonstructural protein 1) was > 100 µM (active).

For `O=S(=O)(/C=C/c1ccccc1)NC1CCCCCC1`, the AC50 [4] was 10.5 µM (active).

In the case of `O=C(CSc1nc2cc(Cl)ccc2s1)NC(=O)NCc1ccco1`, the IC50 (Estrogen receptor) is reported as > 50 µM (not active).

In the case of `COc1ccc(OC)c2nc(O)c(CCNC(=O)COc3ccccc3)cc12`, the AC50 (Cytochrome P450 2C9) is reported as “inconclusive”.

In the case of `COc1ccc(Nc2nc(N/N=C/c3ccc(N(C)C)cc3)nc(C)c2[N+](=O)[O-])cc1`, the EC50 (cells [2]) is reported as > 350 µM (not active) and the EC50 (cells [3]) is reported as > 350 µM (not active).

With `COc1ccccc1OCC(=O)NNC(=O)c1cnccn1` the IC50 [7] was > 47.1 µM (inactive), the EC50 [8] was > 53 µM (inactive) and the AC50 (Cytochrome P450 1A2) was 17.8 µM (inconclusive). The AC50 (Cytochrome P450 2C9) was “inconclusive”.

For `CCNc1ncc2ncc(=O)n(C3CC3)c2n1`, the AC50 (Cytochrome P450 2C9) was “inconclusive”.

For `Cc1ccc(C[S+]([O-])Cc2ccc(C(=O)N3CCN(c4ccccc4)CC3)o2)cc1` (centres undefined), the EC50 [9] was > 300 µM (not active), the EC50 [10] was > 300 µM (not active) and the EC50 [5] was 7.61 µM (active). The EC50 [6] was 33.2 µM (active) and the AC50 [1] was 5.92 µM (active).

With `Cc1cccc(N2C(=O)C=CC2=O)c1` the AC50 [4] was 1.63 µM (active).

For `COc1ccc(C(=O)Nc2ccc(Cl)cn2)cc1Cl`, the AC50 (Cytochrome P450 2C9) was “inconclusive”.

With `O=C(O)c1cscc1Cc1cccs1` the AC50 (Cytochrome P450 2C9) was “inconclusive”.
